Here are results for 22 compounds from patent publication US9085576B2 (AMGEN INC., priority 2013, dated 2015).

SMILES strings stand for the structures.

The target of assay [1] is Cathepsin D (Cat D) (Homo sapiens (Human), UniProt P07339). The assay can be described thus: In vitro enzymatic Cathepsin D (Cat D) FRET assay. Format: biochemical. Conditions: read-out: CatD IC50.
Assay [2] deals with Beta Secretase enzyme (BACE) (Homo sapiens (Human), UniProt P56817). The assay can be described thus: In vitro enzymatic BACE FRET assay. Conditions: read-out: BACE1 Enzyme assay IC50. Format: biochemical.
Sequence of Beta Secretase enzyme (BACE) (P56817 46-501): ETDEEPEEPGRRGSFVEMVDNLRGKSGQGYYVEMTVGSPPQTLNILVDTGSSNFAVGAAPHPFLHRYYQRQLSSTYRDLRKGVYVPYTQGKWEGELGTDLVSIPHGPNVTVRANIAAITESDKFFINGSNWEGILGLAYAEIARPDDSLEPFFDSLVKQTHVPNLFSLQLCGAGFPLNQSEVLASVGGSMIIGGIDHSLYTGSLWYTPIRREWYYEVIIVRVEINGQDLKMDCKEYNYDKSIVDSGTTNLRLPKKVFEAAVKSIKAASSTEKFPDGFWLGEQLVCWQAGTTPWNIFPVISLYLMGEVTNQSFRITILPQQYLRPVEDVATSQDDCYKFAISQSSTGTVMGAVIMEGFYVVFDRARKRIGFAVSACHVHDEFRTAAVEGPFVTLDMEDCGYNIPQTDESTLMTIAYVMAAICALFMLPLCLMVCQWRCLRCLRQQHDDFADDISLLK
Assay [3] addresses BACE (Homo sapiens (Human), UniProt P56817). The assay can be described thus: In vitro BACE cell-based assay (Aβ40 in conditioned medium, sandwich ELISA).

Sequence of Cathepsin D (Cat D) (P07339 65-412, species assumed): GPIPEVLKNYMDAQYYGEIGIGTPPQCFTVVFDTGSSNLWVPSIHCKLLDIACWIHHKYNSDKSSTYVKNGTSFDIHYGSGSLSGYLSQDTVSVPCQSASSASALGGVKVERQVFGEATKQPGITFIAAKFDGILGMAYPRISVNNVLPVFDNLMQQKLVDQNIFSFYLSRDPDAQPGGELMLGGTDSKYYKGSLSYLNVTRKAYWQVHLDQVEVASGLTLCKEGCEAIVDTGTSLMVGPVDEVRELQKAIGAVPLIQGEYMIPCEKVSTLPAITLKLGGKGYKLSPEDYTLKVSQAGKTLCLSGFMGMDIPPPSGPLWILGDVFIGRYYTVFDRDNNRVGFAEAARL
Sequence of BACE (P56817 46-501, species assumed): as the sequence (P56817 46-501) above

The IC50 is the midpoint of a concentration-inhibition curve. As to `Cc1cc(C(F)F)cnc1C(=O)Nc1ccc(F)c([C@@]2(C(F)F)N=C(N)O[C@@H]3C[C@@H]32)c1` [Example 186, N-(3-((1R,5S,6R)-3-amino-5-(difluoromethyl)-2-oxa-4-azabicyclo[4.1.0]hept-3-en-5-yl)-4-fluorophenyl)-5-(difluoromethyl)-3-methylpicolinamide], the IC50 in assay [1] turned out to be 768 µM; in assay [2] it was 0.061 µM; in assay [3], 0.0345 µM.

On to `COc1ccc(C(=O)Nc2ccc(F)c([C@@]3(C(F)F)N=C(N)O[C@@H]4C[C@@H]43)c2)nn1` [Example 187, N-(3-((1R,5S,6R)-3-amino-5-(difluoromethyl)-2-oxa-4-azabicyclo[4.1.0]hept-3-en-5-yl)-4-fluorophenyl)-6-methoxypyridazine-3-carboxamide], for which the IC50 is 667 µM in assay [1], 3.44 µM in assay [2] and 1.41 µM in assay [3].

Consider `Cc1cc(C(F)(F)F)cnc1C(=O)Nc1ccc(F)c([C@@]2(C(F)F)N=C(N)O[C@@H]3C[C@@H]32)c1` [Example 188, N-(3-((1R,5S,6R)-3-amino-5-(difluoromethyl)-2-oxa-4-azabicyclo[4.1.0]hept-3-en-5-yl)-4-fluorophenyl)-3-methyl-5-(trifluoromethyl) picolinamide], for which the IC50 worked out at 159 µM in assay [1], 0.04 µM in assay [2] and 0.0279 µM in assay [3].

In the case of `Cc1cc(OCC(F)(F)F)cnc1C(=O)Nc1ccc(F)c([C@@]2(C(F)F)N=C(N)O[C@@H]3C[C@@H]32)c1` [Example 189, N-(3-((1R,5S,6R)-3-amino-5-(difluoromethyl)-2-oxa-4-azabicyclo[4.1.0]hept-3-en-5-yl)-4-fluorophenyl)-3-methyl-5-(2,2,2-trifluoroethoxy) picolinamide], the IC50 in assay [1] was 770 µM; in assay [2], 0.12 µM; in assay [3], 0.386 µM.

As to `Cc1ccc(C(=O)Nc2ccc(F)c([C@@]3(C(F)F)N=C(N)O[C@@H]4C[C@@H]43)c2)nc1` [Example 190, N-(3-((1R,5S,6R)-3-amino-5-(difluoromethyl)-2-oxa-4-azabicyclo[4.1.0]hept-3-en-5-yl)-4-fluorophenyl)-5-methylpicolinamide], the values for the IC50 in assay [1], in assay [2] and in assay [3] were 1470 µM, 0.151 µM and 0.0735 µM, respectively.

Take `CC(F)(F)Oc1ccc(C(=O)Nc2ccc(F)c([C@@]3(C(F)F)N=C(N)O[C@@H]4C[C@@H]43)c2)nc1` [Example 191, N-(3-((1R,5S,6R)-3-amino-5-(difluoromethyl)-2-oxa-4-azabicyclo[4.1.0]hept-3-en-5-yl)-4-fluorophenyl)-5-(1,1-difluoroethoxy) picolinamide]: the concentration for half-maximal inhibition (IC50) in assay [1] turned out to be 1070 µM; in assay [2], 0.415 µM; in assay [3] it was 0.536 µM.

As for `COc1cnc(C(=O)Nc2ccc(F)c([C@@]3(CF)N=C(N)O[C@@H]4C[C@@H]43)c2)cn1` [Example 194, N-(3-((1R,5S,6R)-3-amino-5-(fluoromethyl)-2-oxa-4-azabicyclo[4.1.0]hept-3-en-5-yl)-4-fluorophenyl)-5-methoxypyrazine-2-carboxamide], the IC50 in assay [1] came to 1230 µM; in assay [2] it was 0.143 µM; in assay [3] it was 0.027 µM.

In the case of `COc1ccc(C(=O)Nc2ccc(F)c([C@@]3(CF)N=C(N)O[C@@H]4C[C@@H]43)c2)nc1` [Example 195, N-(3-((1R,5S,6R)-3-amino-5-(fluoromethyl)-2-oxa-4-azabicyclo[4.1.0]hept-3-en-5-yl)-4-fluorophenyl)-5-methoxypicolinamide], the IC50 was found to be 759 µM in assay [1], 0.124 µM in assay [2] and 0.0156 µM in assay [3].

In the case of `Cc1cc(C#N)cnc1C(=O)Nc1ccc(F)c([C@@]2(CF)N=C(N)O[C@@H]3C[C@@H]32)c1` [Example 196, N-(3-((1R,5S,6R)-3-amino-5-(fluoromethyl)-2-oxa-4-azabicyclo[4.1.0]hept-3-en-5-yl)-4-fluorophenyl)-5-cyano-3-methylpicolinamide], the values for the IC50 in assay [1], in assay [2] and in assay [3] were 703 µM, 0.0324 µM and 0.009 µM, respectively.

With `C#CCOc1cnc(C(=O)Nc2ccc(F)c([C@@]3(CF)N=C(N)O[C@@H]4C[C@@H]43)c2)cn1` [Example 197, N-(3-((1R,5S,6R)-3-amino-5-(fluoromethyl)-2-oxa-4-azabicyclo[4.1.0]hept-3-en-5-yl)-4-fluorophenyl)-5-(prop-2-yn-1-yloxy)pyrazine-2-carboxamide], the results for the IC50 in assay [1], in assay [2] and in assay [3] were 260 µM, 0.0066 µM and 0.0023 µM, respectively.

For the compound `Cc1cc(Cl)cnc1C(=O)Nc1ccc(F)c([C@@]2(CF)N=C(N)O[C@@H]3C[C@@H]32)c1` [Example 198, N-(3-((1R,5S,6R)-3-amino-5-(fluoromethyl)-2-oxa-4-azabicyclo[4.1.0]hept-3-en-5-yl)-4-fluorophenyl)-5-chloro-3-methylpicolinamide], the IC50 in assay [1] amounted to 349 µM; in assay [2], 0.0338 µM; in assay [3], 0.0152 µM.

As for `Cc1c(C(=O)Nc2ccc(F)c([C@@]3(CF)N=C(N)O[C@@H]4C[C@@H]43)c2)nc2ccc(Cl)cn12` [Example 200, N-(3-((1R,5S,6R)-3-amino-5-(fluoromethyl)-2-oxa-4-azabicyclo[4.1.0]hept-3-en-5-yl)-4-fluorophenyl)-6-chloro-3-methylimidazo[1,2-a]pyridine-2-carboxamide], the results for the IC50 in assay [1], in assay [2] and in assay [3] were 465 µM, 0.189 µM and 0.025 µM, respectively.

`NC1=N[C@](CF)(c2cc(NC(=O)c3cc4ccccc4cn3)ccc2F)[C@H]2C[C@H]2O1` [Example 202, N-(3-((1R,5S,6R)-3-amino-5-(fluoromethyl)-2-oxa-4-azabicyclo[4.1.0]hept-3-en-5-yl)-4-fluorophenyl) isoquinoline-3-carboxamide]: the IC50 in assay [1] was determined as 430 µM; in assay [2] it was 0.499 µM; in assay [3], 0.159 µM.

`CC#CCOc1ccc(C(=O)Nc2ccc(F)c([C@@]3(CF)N=C(N)O[C@@H]4C[C@@H]43)c2)nc1` [Example 203, N-(3-((1R,5S,6R)-3-amino-5-(fluoromethyl)-2-oxa-4-azabicyclo[4.1.0]hept-3-en-5-yl)-4-fluorophenyl)-5-(but-2-yn-1-yloxy)picolinamide]: the IC50 in assay [1] came to 303 µM; in assay [2], 0.0089 µM; in assay [3], 0.0039 µM.

As to `N#Cc1ccc(C(=O)Nc2cnc(F)c([C@@]3(CF)N=C(N)O[C@@H]4C[C@@H]43)c2)nc1` [Example 204, N-(5-((1R,5S,6R)-3-amino-5-(fluoromethyl)-2-oxa-4-azabicyclo[4.1.0]hept-3-en-5-yl)-6-fluoropyridin-3-yl)-5-cyanopicolinamide], the IC50 is 294 µM in assay [1], 0.145 µM in assay [2] and 0.0335 µM in assay [3].

With `C#CCOc1cnc(C(=O)Nc2cnc(F)c([C@@]3(CF)N=C(N)O[C@@H]4C[C@@H]43)c2)cn1` [Example 206, N-(5-((1R,5S,6R)-3-amino-5-(fluoromethyl)-2-oxa-4-azabicyclo[4.1.0]hept-3-en-5-yl)-6-fluoropyridin-3-yl)-5-(prop-2-yn-1-yloxy)pyrazine-2-carboxamide], the values for the IC50 in assay [1], in assay [2] and in assay [3] were 311 µM, 0.0094 µM and 0.0064 µM, respectively.

In the case of `NC1=N[C@](CF)(c2cc(NC(=O)c3nn(C(F)F)cc3Cl)cnc2F)[C@H]2C[C@H]2O1` [Example 207, N-(5-((1R,5S,6R)-3-amino-5-(fluoromethyl)-2-oxa-4-azabicyclo[4.1.0]hept-3-en-5-yl)-6-fluoropyridin-3-yl)-4-chloro-1-(difluoromethyl)-1H-pyrazole-3-carboxamide], the IC50 came to 370 µM in assay [1], 0.0578 µM in assay [2] and 0.0176 µM in assay [3].

In the case of `NC1=N[C@@](c2cc(NC(=O)c3ncc(Cl)cc3Cl)ccc2Cl)(C(F)F)[C@H]2C[C@H]2O1` [Example 211, N-(3-((1R,5S,6R)-3-amino-5-(difluoromethyl)-2-oxa-4-azabicyclo[4.1.0]hept-3-en-5-yl)-4-chlorophenyl)-3,5-dichloropicolinamide], the IC50 was > 400 µM in assay [1], 0.0126 µM in assay [2] and 0.0147 µM in assay [3].

Regarding `Cc1cc(OC(F)F)cnc1C(=O)Nc1ccc(Cl)c([C@@]2(C(F)F)N=C(N)O[C@@H]3C[C@@H]32)c1` [Example 212, N-(3-((1R,5S,6R)-3-amino-5-(difluoromethyl)-2-oxa-4-azabicyclo[4.1.0]hept-3-en-5-yl)-4-chlorophenyl)-5-(difluoromethoxy)-3-methylpicolinamide], the IC50 stood at 928 µM in assay [1], 0.0469 µM in assay [2] and 0.0385 µM in assay [3].

`Cc1cc(OC(F)F)cnc1C(=O)Nc1ccc(Cl)c([C@]2(C(F)F)N=C(N)O[C@H]3C[C@H]32)c1` [Example 213, N-(3-((1S,5R,6S)-3-amino-5-(difluoromethyl)-2-oxa-4-azabicyclo[4.1.0]hept-3-en-5-yl)-4-chlorophenyl)-5-(difluoromethoxy)-3-methylpicolinamide]: the results for the IC50 in assay [1], in assay [2] and in assay [3] were 1130 µM, 2.42 µM and 1.31 µM, respectively.

As for `NC1=N[C@@](c2cc(NC(=O)c3ccc(Br)cn3)ccc2Cl)(C(F)F)[C@H]2C[C@H]2O1` [Example 214, N-(3-((1R,5S,6R)-3-amino-5-(difluoromethyl)-2-oxa-4-azabicyclo[4.1.0]hept-3-en-5-yl)-4-chlorophenyl)-5-bromopicolinamide], the figures for the IC50 in assay [1], in assay [2] and in assay [3] were 459 µM, 0.0093 µM and 0.0132 µM, respectively.

Turning to `CC#CCOc1cnc(C(=O)Nc2ccc(Cl)c([C@@]3(C(F)F)N=C(N)O[C@@H]4C[C@@H]43)c2)cn1` [Example 215, N-(3-((1R,5S,6R)-3-amino-5-(difluoromethyl)-2-oxa-4-azabicyclo[4.1.0]hept-3-en-5-yl)-4-chlorophenyl)-5-(but-2-yn-1-yloxy)pyrazine-2-carboxamide], the IC50 in assay [1] is 1930 µM; in assay [2], 0.0017 µM; in assay [3] it was 0.0043 µM.
